# From US20260055061A1, “HALOPHTHALIMIDE COMPOUNDS AND METHODS OF USE AGAINST TBI, INFLAMMATORY DISORDER, AUTOIMMUNE DISORDER, NEURODEGENERATIVE DISEASE OR VIRAL INFECTION” (The United States of America, as represented by the …, priority 2022, published 2026)
# Assays:
# [1] = tested on: LPS-induced nitrite in RAW 264.7 cells; assay: LPS-induced nitrite production in RAW 264.7 cells (Griess reagent / fluorometric kit); type: cell-based, mouse; conditions: for Nitrite, % Change versus Control (± s.e.m.): 10 uM; for nitrite level, % of vehicle control: percentage of vehicle control value (control = 100%), mean ± S.E.M., n = 3
# Method: Nitrite ion detection in drug treated […] cell culture media: To measure the levels of nitrite ion NO2—) the Griess Reagent System (Promega, Madison, WI, Cat #G2930) was utilized. The protocol followed was that recommended by the manufacturer. In brief a NO2— ion standard curve was prepared in culture media of the same composition to that used for the cell culture study. The concentration range of the standard curve was from 1.5 µM to 100 µM. Equal volumes (50 μL) of standards and unknown samples were added to clear 96 well plates in duplicate. Then 50 μL of sulfanilamide solution was added to each well and the plate was covered and incubated in the dark for 10 min. After the incubation period 50 μL of N-1-napthylethylenediamine dihydrochloride solution was added to each well and the plate was incubated in dark for a further 10 min. After this incubation, the plate was read at 550 nm on a SPECTRAmax PLUS plate reader and the absorbances were used to generate a NO2— standard curve and the NO2— ion levels of the unknown samples are determined using SoftMax Pro V5, Molecular Devices.
# Most neurons are highly vulnerable to RNS and ROS. Nitric oxide (NO) is one of RNSs, which is very short lived and cannot be readily measured. However, nitrite is a stable end product of nitric oxide metabolism. Therefore, nitrite acts as a surrogate measure of NO. The Griess Reagent System (Promega Corporation, Madison, WI) can be applied to measure nitrite levels in culture media following the manufacturer's protocol, and this system was used in the present study as it is a more sensitive assay compared to quantifying actions on TNF-α by ELISA assay. […] This challenge induces high level of TNF-α protein accompanied by a robust generation of nitrite.
# (§1) Cells were propagated as described by ATCC guidelines.
# [2] = Phase I metabolic stability in human liver microsomes (+/- NADPH, LC/MS); type: in vitro ADME; conditions: for % Compound Remaining (mean), NADPH: with NADPH; for % Compound Remaining (mean), -NADPH: without NADPH
# Method: The fluorinated compounds were evaluated under the more metabolically demanding conditions of a Phase-1-type microsomal analysis. […] For this initial comparison, the 7-fluoro-dithiopomaldiomide 30 was selected owing to its combination of favorable biological parameters and general ease of synthesis. The reactions on each sample were initiated by addition of human liver microsomes in the presence or absence of an NADPH regenerating system, and compound disappearance was monitored via LC/MS (FIG. 14, Table 10).
# TNF-α = assay: LPS-induced TNF-α production in RAW 264.7 cells (ELISA); type: cell-based, mouse; conditions: for TNF-a, % Change versus Control (± s.e.m.): 10 uM; for TNF-α % Δ: percentage of vehicle control value (control = 100%), mean ± S.E.M., n = 3
# Method: Enzyme-linked immunosorbent assay for TNF-α protein: Media TNF-α levels were measured by use of the Biolegend ELISA MAX Set Delux ELISA (#430904). The protocol used was that recommended by the manufacturer. In brief, a day prior to performing the assay, a 96 well plate was coated with a capture antibody directed against TNF-α. The following day the assay plate was washed and blocked with the kit blocking agent for 1 h while being mixed on a plate shaker at 200 rpm (all incubations were mixed at 200 rpm unless stated otherwise). A TNF-α protein standard curve was prepared in the assay diluent following the kit instructions and unknown media samples were likewise diluted in the same assay diluent. After blocking, the plate was washed and then both the standards and unknown media samples were added to the plate in duplicate. The standards and unknown samples were incubated for 2 h. After the incubation, the plate was washed and then the biotin labeled detection antibody was added to each well and incubated for a further 1 h. After this incubation, the avidin-HRP conjugate complex was added to each well and incubated for 30 min. The plate was washed and the chromogenic substrate 3,3′,5,5′-tetramethylbenzidine solution was added to each well. At this point the plate was covered and incubated in the dark for 15 min, with no mixing. After 15 min the chromogenic reaction was stopped by the addition of 2 N H2SO4 and the absorbance was read at 450 nm and for background subtractions at 570 nm, on a SPECTRAmax PLUS plate reader. The absorbances were used to generate a TNF-α a protein standard curve and the protein levels in the unknown samples were determined using SoftMax Pro V5, Molecular Devices.
# as §1
# RAW 264.7 cells = assay: Cell viability of drug treated RAW 264.7 cells (CellTiter 96 AQueous One, MTS); conditions: for Viability, % Change versus Control (± s.e.m.): 10 uM; for Cell Viability % Δ: percentage of vehicle control value, mean ± S.E.M., n = 3
# Method: Assessments of drug anti-TNF-α and nitric oxide generation in RAW 264.7 cells: RAW 264.7 cells were purchased from ATCC Manassas, VA, USA). The cells were grown in DMEM media (Invitrogen, DMEM, high glucose, GlutaMAX Supplement, pyruvate, #10569-010) supplemented with 10% FBS (Invitrogen, Fetal Bovine Serum, qualified, heat inactivated, #16140-071) with penicillin and streptomycin (Invitrogen, Penicillin-Streptomycin (10,000 U/mL), #15140-122) and were maintained at 37 C and 5% CO2. The cells were grown to 75%-85% confluence on 10 cm plates (corning-Fal-con, #353003) following the protocol described by ATTC. to assess for drug effects on LPS-induced markers of inflammation, namely TNF-α protein and nitrite ion levels (NO2, a stable end-product of nitric oxide metabolism) cells were seeded into 24 well (VWR, #10062-896) at a density of 200×10^3 cells per well. On each plate there was one blank well where no cells were added yet culture media in the well was treated similarly to wells with cells (n=1). The blank well media was used for background subtraction for various downstream assays. twenty-four hours after seeding the plate the seeding media was replaced with fresh media. Two hours after this the cells were exposed to a range of concentrations of drug test-compound(s) dissolved in 100% tissue culture grade dimethyl sjloxide (DMSO, SIGMA #D2650). Drug stocks were prepared in a 200 times more concentrated stock in DMSO. The final concentration of DMSO added to the cells was 0.5%. The effects of each concentration of drug were assessed in 4 wells per concentration in the 24 well plate (n=3 #-4). On each plate one set of wells were assigned as drug-vehicle control (i.e. DMSO), one test compound was assessed on one 24 well plate. […] One hour after the drugs were added the cells were challenged with lipopolysaccharide (LPS, SIGMA, serotype 055:B5) at a final concentration of 60 ng/ml. Twenty to twenty-four hours after the cells were challenged with LPS the culture media was collected and utilized for the measurement of markers of inflammation.
# Cellular viability assessment of drug treated RAW 264.7 cells: RAW 264.7 cell viability was determined by use of the CellTiter 96 AQueous One Solution Cell Proliferation Assay (Promega, Madison, WI). Changes in cellular health status were determined by use of indirect measures related to the formation of a colored tetrazolium dye product that can be measured spectrophotometrically at 490 nm. An increase in absorbance at 490 nm is indicative of an increase in numbers of healthy cells; similarly a reduction in absorbance is indicative of a reduction of healthy cells. After the culture media was harvested for use in TNF-α and NO2— ion assays, the media was replaced with 0.5 mL of fresh media plus 100 μL of the cell viability reaction mixture. After a 20-30 min incubation at 37° C. with 5% CO2 the absorbance at 490 nm was obtained using an infinite M200 PRO plate reader (TECAN, USA).
# Statistical analyses for RAW-derived assays: Data are expressed as a percentage change from the DMSO-vehicle control measurements. Measurements are expressed as mean±standard errors, where the n number represents the number of wells in a 24 well plate. Due to the presence of one blank control well on each plate, for some drug concentrations the n number is 3 # and not 4. Statistical comparisons were undertaken by use of a One-Way ANOVA with appropriate Bonferroni corrections for multiple comparisons, as required (GraphPad InStat Version 3.05). P values of <0.05 are considered to be of statistical significance.
# RAW 264.7 cell culture: RAW 264.7 mouse cells were purchased from ATCC (Manassas, VA, USA) and grown in DMEM media supplemented with 10% FCS, penicillin 100 U/ml and streptomycin 100 μg/ml (ThermoFisher Scientific, Asheville, NC, USA). The cells were maintained at 37° C. and 5% CO2.
# [3] = molecular target: cereblon (CRBN/DDB1-CUL4A-Rbx1 complex) / BRD3 (Homo sapiens (Human), UniProt Q96SW2); assay: Cereblon/BRD3 binding assay (AlphaScreen / FRET); conditions: cereblon/BRD3 binding FRET assay
# Method: After 30 min of incubation with shaking at room temperature, AlphaLISA anti-FLAG Acceptor and Alpha Glutathione Donor beads (PerkinElmer) were sequentially added and then incubated for 1 hr at room temperature for each of the added chemicals. Alpha counts were thereafter read on a Synergy Neo2 (BioTek) for the analysis. Relative activity or inhibition was calculated as the highest value, which was set to 100%, and the lowest value was set to 0% after subtraction of the “blank value” from all readings.
# After 30 min of incubation with shaking at room temperature, AlphaLISA anti-FLAG Acceptor and Alpha Glutathione Donor beads (PerkinElmer) were sequentially added and then incubated for 1 h at room temperature for each of the added chemicals. Alpha counts were thereafter read on a Synergy Neo2 (BioTek) for the analysis. The relative activity of the alpha signal was calculated after subtraction of the “blank value” from all readings, and the value of the vehicle group was then set as 100%.
# SALL4 = SALL4 (Homo sapiens (Human), UniProt Q9UJQ4); assay: SALL4 expression in Tera-1 cells (Western blot); type: cell-based
# Method: (§2) For Western blot analysis, total proteins were extracted using RIPA buffer (ThermoFisher Scientific, Waltham, MA) containing Halt Protease Inhibitor Cocktail (ThermoFisher Scientific). […] After incubation at 4° C. overnight, the following HRP conjugated secondary antibodies were used: (i) goat anti-rabbit IgG (ThermoFisher Scientific) for ikaros and aiolos, and (ii) goat anti-mouse IgG (ThermoFisher Scientific) for SALL4 and GAPDH. […] Antigen-antibody complexes were detected using enhanced chemiluminescence (Thermo, iBright CL1500).
# (§3) Specifically, MM1.S cells were obtained from ATCC (Manassas, VA, USA), grown in RPMI media supplemented with 10% FBS, penicillin 100 U/mL, and streptomycin […], and maintained at 37° C. and 5% CO2.
# as §2, with “MA, USA)” for “MA)”, “Scientific). Thereafter, the proteins were separated by gel electrophoresis and then transferred to polyvinylidene difluoride (PVDF) membranes (ThermoFisher Scientific), as described previously.” for “Scientific).”, “HRP-conjugated” for “HRP conjugated”, “Ikaros” for “ikaros”, “Aiolos,” for “aiolos,”, “(ThermoFisher Scientific,” for “(Thermo,”
# Aiolos = Aiolos (Homo sapiens (Human), UniProt Q9UKT9); assay: Aiolos degradation in MM1.S cells (Western blot); type: cell-based; conditions: 1 μM, relative to GAPDH
# Method: as §2, §3
# (§4) For Western blot analysis, total proteins were extracted using RIPA buffer (ThermoFisher Scientific, Waltham, MA, USA) containing Halt Protease Inhibitor Cocktail (ThermoFisher Scientific). Thereafter, the proteins were separated by gel electrophoresis and then transferred to polyvinylidene difluoride (PVDF) membranes (ThermoFisher Scientific), as described previously. […] Antigen-antibody complexes were detected using enhanced chemiluminescence (ThermoFisher Scientific, iBright CL1500).
# Ikaros = Ikaros (Homo sapiens (Human), UniProt Q13422); assay: Ikaros degradation in MM1.S cells (Western blot); type: cell-based; conditions: 1 μM, relative to GAPDH
# Method: as §2, §3, §4
# [4] = LPS-activated RAW 264.7 cells (Table 9)
# [5] = 1 μM, LPS-challenged RAW 264.7 cells
# [6] = 10 μM, LPS-challenged RAW 264.7 cells
# [7] = 30 μM, LPS-challenged RAW 264.7 cells
# Sequence of cereblon (CRBN/DDB1-CUL4A-Rbx1 complex) / BRD3 (Q96SW2 whole entry): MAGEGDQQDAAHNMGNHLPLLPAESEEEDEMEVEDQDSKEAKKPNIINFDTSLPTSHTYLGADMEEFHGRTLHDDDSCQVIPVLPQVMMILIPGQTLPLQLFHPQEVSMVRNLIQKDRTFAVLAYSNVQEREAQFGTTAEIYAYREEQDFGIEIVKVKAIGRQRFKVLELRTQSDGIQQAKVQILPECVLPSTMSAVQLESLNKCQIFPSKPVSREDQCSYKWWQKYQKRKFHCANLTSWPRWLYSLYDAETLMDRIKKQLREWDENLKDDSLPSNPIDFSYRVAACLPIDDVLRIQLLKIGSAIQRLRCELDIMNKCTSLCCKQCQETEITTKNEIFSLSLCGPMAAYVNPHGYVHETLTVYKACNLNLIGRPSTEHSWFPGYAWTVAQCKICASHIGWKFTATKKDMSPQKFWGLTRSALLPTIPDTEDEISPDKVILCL
# Sequence of cereblon (CRBN/DDB1-CUL4A-Rbx1 complex) / BRD3 (Q16531 whole entry partner): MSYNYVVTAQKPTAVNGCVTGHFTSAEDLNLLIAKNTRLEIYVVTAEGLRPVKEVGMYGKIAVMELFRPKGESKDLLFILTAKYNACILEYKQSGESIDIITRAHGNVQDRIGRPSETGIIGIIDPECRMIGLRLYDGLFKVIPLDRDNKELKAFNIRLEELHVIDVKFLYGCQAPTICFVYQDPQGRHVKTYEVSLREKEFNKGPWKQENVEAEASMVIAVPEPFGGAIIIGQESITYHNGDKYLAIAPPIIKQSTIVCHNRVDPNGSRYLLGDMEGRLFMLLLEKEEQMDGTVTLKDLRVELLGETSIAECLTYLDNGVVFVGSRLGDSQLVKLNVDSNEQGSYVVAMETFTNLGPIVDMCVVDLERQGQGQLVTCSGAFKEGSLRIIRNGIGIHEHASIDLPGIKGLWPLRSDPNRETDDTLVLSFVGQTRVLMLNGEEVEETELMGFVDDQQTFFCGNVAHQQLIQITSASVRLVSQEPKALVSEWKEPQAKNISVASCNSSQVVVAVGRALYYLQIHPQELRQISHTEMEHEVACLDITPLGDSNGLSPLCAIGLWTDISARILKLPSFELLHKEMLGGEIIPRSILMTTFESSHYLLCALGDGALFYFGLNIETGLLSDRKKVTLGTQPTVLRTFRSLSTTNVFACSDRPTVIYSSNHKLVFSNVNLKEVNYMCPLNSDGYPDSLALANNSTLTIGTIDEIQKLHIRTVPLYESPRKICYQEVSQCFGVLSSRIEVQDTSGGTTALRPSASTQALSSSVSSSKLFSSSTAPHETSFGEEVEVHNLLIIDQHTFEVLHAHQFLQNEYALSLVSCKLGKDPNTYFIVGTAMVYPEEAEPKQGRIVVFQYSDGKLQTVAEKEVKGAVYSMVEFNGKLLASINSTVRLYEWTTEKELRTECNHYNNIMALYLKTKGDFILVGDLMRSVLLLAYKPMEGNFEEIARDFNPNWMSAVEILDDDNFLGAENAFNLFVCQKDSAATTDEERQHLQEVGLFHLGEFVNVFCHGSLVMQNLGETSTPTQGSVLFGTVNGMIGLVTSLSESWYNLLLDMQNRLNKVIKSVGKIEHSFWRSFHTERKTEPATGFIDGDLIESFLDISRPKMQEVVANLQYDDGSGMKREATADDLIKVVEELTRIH
# Sequence of cereblon (CRBN/DDB1-CUL4A-Rbx1 complex) / BRD3 (Q13619 whole entry partner): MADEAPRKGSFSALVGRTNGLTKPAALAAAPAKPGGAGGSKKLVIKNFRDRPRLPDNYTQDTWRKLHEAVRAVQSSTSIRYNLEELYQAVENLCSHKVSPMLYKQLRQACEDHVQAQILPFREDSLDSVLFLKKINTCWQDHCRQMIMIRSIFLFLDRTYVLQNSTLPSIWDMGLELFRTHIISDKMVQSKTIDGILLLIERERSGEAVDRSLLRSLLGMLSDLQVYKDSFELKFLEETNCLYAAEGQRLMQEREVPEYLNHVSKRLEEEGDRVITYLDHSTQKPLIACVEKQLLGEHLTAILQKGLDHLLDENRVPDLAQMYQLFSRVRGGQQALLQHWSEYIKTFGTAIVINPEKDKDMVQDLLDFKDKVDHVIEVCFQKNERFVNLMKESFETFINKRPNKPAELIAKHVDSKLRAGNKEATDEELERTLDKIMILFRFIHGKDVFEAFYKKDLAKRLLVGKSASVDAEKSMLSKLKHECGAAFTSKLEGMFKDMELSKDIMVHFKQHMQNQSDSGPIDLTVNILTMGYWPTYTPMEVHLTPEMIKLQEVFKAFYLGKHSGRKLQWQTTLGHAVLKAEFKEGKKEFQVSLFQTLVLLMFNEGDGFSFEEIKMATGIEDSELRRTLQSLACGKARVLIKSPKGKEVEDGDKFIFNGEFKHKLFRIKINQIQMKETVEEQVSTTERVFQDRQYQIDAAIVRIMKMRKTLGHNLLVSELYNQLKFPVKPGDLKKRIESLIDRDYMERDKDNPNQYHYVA
# Sequence of cereblon (CRBN/DDB1-CUL4A-Rbx1 complex) / BRD3 (P62877 whole entry partner): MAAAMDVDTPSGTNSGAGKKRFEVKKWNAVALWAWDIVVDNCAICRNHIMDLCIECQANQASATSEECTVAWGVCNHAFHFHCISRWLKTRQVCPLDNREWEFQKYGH
molecule,measurement,setting,value
"Nc1cccc2c1C(=S)N(C1CCC(=S)NC1=O)C2=O (stereo not shown) [4′, 3,6′-dithiopomalidomide, reference compound]",nitrite levels (in words),"[1]; six-compound pomalidomide grouping, RAW cell assay, FIGS. 12-13",reduced nitrite levels significantly
same,material consumed,"[2]; after 1 hr incubation, human liver microsomes",more than half
same,stability in human liver microsomes (in words),[2]; with and without NADPH,moderate level of instability
Nc1cccc2c1C(=S)N(C1CCC(=S)NC1=O)C2=O (stereo not shown) [drawing 90],"Nitrite, % Change versus Control (± s.e.m.)",[1]; [4],43 ± 1.0 (N.S.) $ %
same,"TNF-a, % Change versus Control (± s.e.m.)",TNF-α; [4],113 ± 5.4 (N.S.) %
same,"Viability, % Change versus Control (± s.e.m.)",RAW 264.7 cells; [4],92 ± 1.8 (N.S.) %
"C[C@@H]1[C@@H](N2C(=O)c3c(F)c(F)c(F)c(F)c3C2=O)C[C@H]2C[C@@H]1C2(C)C [Compound 12, 4,5,6,7-Tetrafluoro-2-((1S,2S,3S,5R)-2,6,6-trimethylbicyclo[3.1.1]heptan-3-yl) isoindoline-1,3-d ione]","nitrite level, % of vehicle control",[1]; [5],24 ± 3%
same,nitrite inhibitory activity (comparison in words),"[1]; 1 μM, tetrafluoro vs corresponding difluoro or stereoisomer",more potent nitrite inhibitory activity
same,TNF-α % Δ,TNF-α; [5],56 ± 5%
same,Cell Viability % Δ,"RAW 264.7 cells; 1 μM, RAW 264.7 cells",63 ± 4%
"CC1(C)[C@@H]2CC[C@@]1(C)[C@@H](N1C(=O)c3c(F)ccc(F)c3C1=O)C2 [Compound 20, 4,7-Difluoro-2-((1R,2S,4R)-1,7,7-trimethylbicyclo[2.2.1]heptan-2-yl) isoindoline-1,3-dione]","nitrite level, % of vehicle control",[1]; [5],90 ± 2%
same,"nitrite level, % of vehicle control",[1]; [6],78 ± 3%
same,"nitrite level, % of vehicle control",[1]; [7],39 ± 5%
same,inhibition at 30 µM,"[1]; Mus musculus, RAW264.7, 30 μM, LPS-challenged RAW 264.7 cells, read-out: nitrite inhibitory activity",39%
same,TNF-α % Δ,TNF-α; [5],100 ± 2%
same,TNF-α % Δ,TNF-α; [6],98 ± 3%
same,anti-TNF-α activity,TNF-α; [7],76%
same,TNF-α % Δ,TNF-α; [7],76 ± 4%
same,Cell Viability % Δ,"RAW 264.7 cells; 1 μM, RAW 264.7 cells",101 ± 3%
same,Cell Viability % Δ,"RAW 264.7 cells; 10 μM, RAW 264.7 cells",98 ± 4%
same,cell viability,"RAW 264.7 cells; 30 μM, RAW 264.7 cells",96%
same,Cell Viability % Δ,"RAW 264.7 cells; 30 μM, RAW 264.7 cells",96 ± 6%
same,cytotoxicity (in words),"RAW 264.7 cells; RAW 264.7 cells, 1 to 30 μM",the smallest
Nc1ccc(F)c2c1C(=S)N(C1CCC(=S)NC1=O)C2=O (stereo not shown) [drawing 96],"% Compound Remaining (mean), NADPH","[2]; human liver microsomes, 0 min",100%
same,"% Compound Remaining (mean), NADPH","[2]; human liver microsomes, 30 min",68%
same,"% Compound Remaining (mean), NADPH","[2]; human liver microsomes, 60 min",48%
same,"% Compound Remaining (mean), -NADPH","[2]; human liver microsomes, 0 min",100%
same,"% Compound Remaining (mean), -NADPH","[2]; human liver microsomes, 30 min",71%
same,"% Compound Remaining (mean), -NADPH","[2]; human liver microsomes, 60 min",53%
Nc1ccc(F)c2c1C(=O)N(C1CCC(=O)NC1=O)C2=O (stereo not shown) [drawing 91],"Nitrite, % Change versus Control (± s.e.m.)",[1]; [4],86 ± 3.9 (N.S.) %
same,"TNF-a, % Change versus Control (± s.e.m.)",TNF-α; [4],98 ± 1.5 (N.S.) %
same,"Viability, % Change versus Control (± s.e.m.)",RAW 264.7 cells; [4],102 ± 0.8 (N.S.) %
"Nc1cccc2c1C(=O)N(C1CCC(=O)NC1=O)C2=O (racemic) [Pomalidomide, pomalidomide, reference compound]",cereblon binding (in words),[3],potently bind to cereblon
same,SALL4 expression levels,"SALL4; Tera-1 cells, 1 μM",induced a decrease in expression levels of SALL4
same,SALL4 levels,"SALL4; human Tera-1 cells, 0.01, 0.1, 1 μM, relative to GAPDH",dramatically lowerered
same,Aiolos levels,Aiolos,dramatically lowerered
same,Ikaros levels,Ikaros,dramatically lowerered
"2-(2,6-dioxopiperidin-3-yl)-4-fluoro-7-nitroisoindoline-1,3-dione [Compound 23]","Nitrite, % Change versus Control (± s.e.m.)",[1]; LPS-activated RAW 264.7 cells,56.8 ± 2.2%
same,"TNF-a, % Change versus Control (± s.e.m.)",TNF-α; LPS-activated RAW 264.7 cells,86.0 ± 4.4%
same,"Viability, % Change versus Control (± s.e.m.)",RAW 264.7 cells; LPS-activated RAW 264.7 cells,104.9 ± 2.1%
"CC(C)Nc1ccc(F)c2c1C(=O)N(C1CCC(=O)NC1=O)C2=O (stereo not shown) [Compound 25, 2-(2,6-dioxopiperidin-3-yl)-4-fluoro-7-(isopropylamino) isoindoline-1,3-dione]","Nitrite, % Change versus Control (± s.e.m.)",[1]; LPS-activated RAW 264.7 cells,110.1 ± 4.4%
same,"TNF-a, % Change versus Control (± s.e.m.)",TNF-α; LPS-activated RAW 264.7 cells,87.1 ± 3.4%
same,"Viability, % Change versus Control (± s.e.m.)",RAW 264.7 cells; LPS-activated RAW 264.7 cells,99.9 ± 0.4%
